Data on one molecule can be found in patent US20150258220A1, “MAGNETIC RESONANCE IMAGING AND/OR SPECTROSCOPY CONTRAST AGENTS AND METHODS OF USE THEREOF” (Duke University, priority 2008, published 2015).

The nature of data set [1]: 13C NMR inversion recovery of diacetyl / monohydrate in water. It is filed as physicochemical. The note with it: pH 7, water. As for the experimental part:
^13C-labelled diacetyl was prepared from ^13C2 oxalate, which was reacted with N, N′-dimethylethylenediamine to afford 2,3-^13C2-1,4-dimethylpiperazine-2,3-dione in 97% yield. Two equivalents of methyl magnesium bromide were added to the piperazine dione to produce the dimethyl piperazine N,O-acetal. Crude acetal was hydrolyzed with 10% aqueous HCl to yield 2,3-^13C2-diacetyl, which was purified by fractional distillation. The carbonyl carbons in diacetyl are magnetically equivalent by symmetry, so at modest resolution (such as that commonly achieved in an imaging system), the spectrum is expected to have only a single line. Neat 2,3-^13C diacetyl does have a single line carbon-13 NMR spectrum, however the carbon spectrum in water has five lines. In water, the monohydrate (i.e., CH3—(^13C═O)(^13C(OH)2)CH3) with classic AX doublets (splitting JC-C=50 Hz) is the majority species. See Bell, Adv. Phys. Org. Chem., 4, 1 (1966); Bell and McDougall, Trans. Faraday Soc., 56, 1281-1285 (1960); and Greenzaid et al., J. Am. Chem. Soc., 89, 749 (1967). The dihydrate is undetectable. Equilibrium can be shifted back to diacetyl by changing solvent, and the rate of interconversion is pH dependent. At pH 7, inversion of the diacetyl alone causes recovery in 8 s, which gives the rate of dehydration. Inversion of all lines causes diacetyl to recover in 22 s.

The nature of data set [2]: DNP hyperpolarization (Oxford HYPERSENSE), single-shot 13C NMR in water. It is filed as physicochemical. The note with it: hyperpolarized sample in water. The source says: FIG. 1 is a single-shot hyperpolarized ^13C nuclear magnetic resonance (NMR) spectrum of 2,3-^13C diacetyl in water. Hyperpolarized 2,3-^13C diacetyl was produced by a commercially available hyperpolarizer (Oxford HYPERSENSE™, Oxford Instruments Molecular Biotools Ltd., Tubney Woods, Abingdon, Oxfordshire, United Kingdom). The sample has about 20% nuclear polarization. The thermally polarized spectrum (not shown) is similar after many averages.
In some embodiments, the hyperpolarizing is performed by DNP. DNP refers to transferring spin polarization from electrons to nuclei. DNP can be performed by doping a material with a free radical. The unpaired electrons in the free radical can be polarized, for example, by exposure to a high magnetic field and low temperature. Irradiation at the electron paramagnetic resonance frequency can then serve to transfer polarization to the nuclei. By “hyperpolarization,” it is meant that the sample is polarized to a level over that found at room temperature and 1 Tesla, preferably polarized to a polarization degree in excess of 0.1%, more preferably 1%, even more preferably 10%.

For data set [3] the following is noted: butter; cited from earlier work.

Take `CC(=O)C(C)=O` [diacetyl]: in data set [1], the “recovery time after inversion of the diacetyl alone (gives the rate of dehydration)” value worked out at 8 s and the “recovery time of diacetyl after inversion of all lines” value is on record as 22 s. Further, the nuclear polarization entry in data set [2] is given as “about 20%”. In addition, in data set [3], the partitioning between phases result was “mostly found in the fatty phase”.
